From paper PMC7539012, “Hyperphosphorylated tau aggregation and cytotoxicity modulators screen identified prescription drugs linked to Alzheimer's disease and cognitive functions” (Scientific Reports, 2020) come the findings set out here.

Where a name gives a salt, the structure may show the parent alone.

One assay has as its system T1, 1N4R p-tau.
T1 construct: made in house; host or cells: E. coli (PIMAX system)
Description: p-tau aggregation modulator screen of 1280-compound library (ThS fluorescence net change over 16 h).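 For ThS net change: 30 µM compound with 6 µM p-tau over 16 h.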 In kind it is biochemical. On the set-up: key to PTAI>2SD: *: PTAI>2SD; key to PTAI>3SD: *: PTAI>3SD.
Settings: not given
Take `O.O=P(O)(O)C(O)(Cc1cccnc1)P(=O)(O)O` [Risedronic acid monohydrate]: the ThS net change worked out at 455.
`Cc1nc2n(c(=O)c1CCN1CCC(c3noc4cc(F)ccc34)CC1)CCCC2` [Risperidone] yielded a ThS net change of 447.
The same measure, in the same setting: then `CCN(C)C(=O)Oc1cccc([C@H](C)N(C)C)c1` [Rivastigmine], with 462; and `CN(C)CCc1c[nH]c2ccc(Cn3cncn3)cc12` [Rizatriptan benzoate], with 473.
The molecule `CN1[C@@H]2C[C@@H](OC(=O)[C@H](CO)c3ccccc3)C[C@H]1[C@@H]1O[C@@H]12.Cl` [Scopolamine hydrochloride] returned a ThS net change of 389.

Staying with this assay, now noted: 1280-compound library screen; ThS fluorescence net change over 16 h.
As to `O=C(NC(Cc1cc(=O)[nH]c2ccccc12)C(=O)O)c1ccc(Cl)cc1` (stereo not shown) [Rebamipide], the ThS net change was found to be 378.
Still for that read-out and setting: then `NC[C@H]1O[C@H](OC2[C@@H](N)C[C@@H](N)[C@H](O)[C@H]2O[C@@H]2O[C@H](CO)[C@@H](O)[C@H]2O)[C@H](N)[C@@H](O)[C@@H]1O.O=S(=O)(O)O` (stereo partly shown) [Ribostamycin sulfate salt], with 379.
On to `CS(=O)(=O)c1ccc(C2=C(c3ccccc3)C(=O)OC2)cc1` [Rofecoxib], for which the ThS net change came to 396.
Molecule `COc1ccc(C2CNC(=O)C2)cc1OC1CCCC1` (stereo not shown) [Rolipram] yielded a ThS net change of 406.
On to `CCCN(CCC)CCc1cccc2c1CC(=O)N2` [Ropinirole HCl], for which the ThS net change is 388.
The molecule `CC(C)Cc1ccc([C@H](C)C(=O)O)cc1` [S-(+)-ibuprofen] yielded a ThS net change of 406.
In turn, `NCCc1c[nH]c2ccc(O)cc12` [Serotonin hydrochloride] came in with a ThS net change of 412.
The molecule `CC(C)NCC(O)c1ccc(NS(C)(=O)=O)cc1` (stereo not shown) [Sotalol hydrochloride] showed a ThS net change of 404.
`C[C@@H]1CN(c2c(F)c(N)c3c(=O)c(C(=O)O)cn(C4CC4)c3c2F)C[C@H](C)N1` [Sparfloxacin]: the ThS net change came out at 403.

The same assay, now with this note: 1280-compound library screen; […].
With `CCOc1ccccc1O[C@@H](c1ccccc1)[C@H]1CNCCO1.CS(=O)(=O)O` [Reboxetine mesylate], the ThS net change worked out at 386.
Consider `CC(=O)OCC(=O)NCCCOc1cccc(CN2CCCCC2)c1` [Roxatidine Acetate HCl], for which the ThS net change is listed as 411.
As to `C#CCN(C)[C@H](C)Cc1ccccc1` [Selegiline hydrochloride], the ThS net change is 388.
In turn, `CN[C@@H]1[C@@H](O)[C@@H](O[C@@H]2[C@@H](O)[C@H](O[C@H]3OC(CN)=CC[C@H]3N)[C@@H](N)C[C@H]2N)OC[C@]1(C)O` [Sisomicin sulfate] displayed a ThS net change of 381.
In the case of `C[C@]12Cc3c[nH]nc3C[C@@H]1CC[C@@H]1[C@@H]2CC[C@@]2(C)[C@H]1CC[C@]2(C)O` [Stanozolol], the ThS net change was determined as 403.

Still in this assay, the particulars now being: flag: p-tau aggregation inhibitor, ThS net change more than 2 SD from mean.
`CO[C@H]1/C=C/O[C@@]2(C)Oc3c(C)c(O)c4c(O)c(c(/C=N/N5CCN(C)CC5)c(O)c4c3C2=O)NC(=O)/C(C)=C\C=C\[C@H](C)[C@H](O)[C@@H](C)[C@@H](O)[C@@H](C)[C@H](OC(C)=O)[C@@H]1C` [Rifampicin]: the “PTAI>2SD” value is recorded as “*”.
Turning to `CO[C@H]1/C=C/O[C@@]2(C)Oc3c(C)c(O)c4c(O)c(c5c(nc6cc(C)ccn65)c4c3C2=O)NC(=O)/C(C)=C\C=C\[C@H](C)[C@H](O)[C@@H](C)[C@@H](O)[C@@H](C)[C@H](OC(C)=O)[C@@H]1C` [Rifaximin], the “PTAI>2SD” value is listed as “*”.

The assay is the same for the next values; noted with them: flag: p-tau aggregation inhibitor, ThS net change more than 3 SD from mean.
As to `CO[C@H]1/C=C/O[C@@]2(C)Oc3c(C)c(O)c4c(O)c(c(/C=N/N5CCN(C6CCCC6)CC5)c(O)c4c3C2=O)NC(=O)/C(C)=C\C=C\[C@H](C)[C@H](O)[C@@H](C)[C@@H](O)[C@@H](C)[C@H](OC(C)=O)[C@@H]1C` [Rifapentine], the “PTAI>3SD” value is reported as “*”.

Staying with this assay, now noted: library screen, ThS fluorescence net change over 16 h with p-tau.
On to `CO[C@H]1/C=C/O[C@@]2(C)Oc3c(C)c(O)c4c(c3C2=O)C2=NC3(CCN(CC(C)C)CC3)NC2=C(NC(=O)/C(C)=C\C=C\[C@H](C)[C@H](O)[C@@H](C)[C@@H](O)[C@@H](C)[C@H](OC(C)=O)[C@@H]1C)C4=O` [Rifabutin], for which the ThS net change is recorded as 267.
On to `CO[C@H]1/C=C/O[C@@]2(C)Oc3c(C)c(O)c4c(O)c(c(/C=N/N5CCN(C)CC5)c(O)c4c3C2=O)NC(=O)/C(C)=C\C=C\[C@H](C)[C@H](O)[C@@H](C)[C@@H](O)[C@@H](C)[C@H](OC(C)=O)[C@@H]1C` [Rifampicin], for which the ThS net change was 158.
In the case of `CO[C@H]1/C=C/O[C@@]2(C)Oc3c(C)c(O)c4c(O)c(c(/C=N/N5CCN(C6CCCC6)CC5)c(O)c4c3C2=O)NC(=O)/C(C)=C\C=C\[C@H](C)[C@H](O)[C@@H](C)[C@@H](O)[C@@H](C)[C@H](OC(C)=O)[C@@H]1C` [Rifapentine], the ThS net change was determined as 86.
Take `CO[C@H]1/C=C/O[C@@]2(C)Oc3c(C)c(O)c4c(O)c(c5c(nc6cc(C)ccn65)c4c3C2=O)NC(=O)/C(C)=C\C=C\[C@H](C)[C@H](O)[C@@H](C)[C@@H](O)[C@@H](C)[C@H](OC(C)=O)[C@@H]1C` [Rifaximin]: the ThS net change is 112.
Turning to `Cc1ncc([N+](=O)[O-])n1CC(C)O` (stereo not shown) [Secnidazole], the ThS net change is listed as 327.
`O=C(CCCN1CCC2(CC1)C(=O)NCN2c1ccccc1)c1ccc(F)cc1` [Spiperone]: the ThS net change stood at 313.

Still in this assay, the particulars now being: p-tau aggregation modulator screen of 1280-compound library; ThS fluorescence net change.
In the case of `COC(=O)[C@H]1[C@H]2C[C@@H]3c4[nH]c5cc(OC)ccc5c4CCN3C[C@H]2C[C@@H](OC(=O)c2cc(OC)c(OC)c(OC)c2)[C@@H]1OC` [Reserpine], the ThS net change was determined as 355.
In the case of `CC1=C(/C=C/C(C)=C/C=C/C(C)=C/C(=O)O)C(C)(C)CCC1` [Retinoic acid], the ThS net change is on record as 374.
As for `Cl.Nc1nc2ccc(OC(F)(F)F)cc2s1` [Riluzole hydrochloride], the ThS net change came to 353.
Turning to `CC(N)C12CC3CC(CC(C3)C1)C2` (stereo not shown) [Rimantadine Hydrochloride], the ThS net change is listed as 365.
Still for that read-out and setting: then `CC(NCCc1ccc(O)cc1)C(O)c1ccc(O)cc1` (stereo not shown) [Ritodrine hydrochloride], with 363.
`CC[C@H]1OC(=O)[C@H](C)[C@@H](O[C@H]2C[C@@](C)(OC)[C@@H](O)[C@H](C)O2)[C@H](C)[C@@H](O[C@@H]2O[C@H](C)C[C@H](N(C)C)[C@H]2O)[C@](C)(O)C[C@@H](C)/C(=N\OCOCCOC)[C@H](C)[C@@H](O)[C@]1(C)O` [Roxithromycin] had a ThS net change of 366.
`CCc1cc(Cl)c(OC)c(C(=O)NC[C@@H]2CCCN2CC)c1O.Cl` [S(-)Eticlopride hydrochloride] showed a ThS net change of 329.
Same read-out and setting: the value for `CC(C)(C)NCC(O)c1ccc(O)c(CO)c1` (stereo not shown) [Salbutamol] was 367; that for `OCc1cc(C(O)CNCCCCCCOCCCCc2ccccc2)ccc1O` (stereo not shown) [Salmeterol] was 358; that for `O=C(O)c1cn(-c2ccc(F)cc2)c2cc(N3CCNCC3)c(F)cc2c1=O` [Sarafloxacin] was 332.
Same read-out and setting: the value for `CN[C@@H]1[C@H](O)[C@H](NC)[C@H]2O[C@@]3(O)C(=O)C[C@@H](C)O[C@H]3O[C@@H]2[C@H]1O.Cl.Cl` [Spectinomycin dihydrochloride] was 361; that for `CC(=O)S[C@@H]1CC2=CC(=O)CC[C@]2(C)[C@H]2CC[C@@]3(C)[C@@H](CC[C@@]34CCC(=O)O4)[C@H]12` [Spironolactone] was 372.

Still in this assay, the particulars now being: p-tau aggregation modulator screen of 1280-compound library; […].
As to `Br.C[N+]1([O-])[C@@H]2C[C@@H](OC(=O)[C@H](CO)c3ccccc3)C[C@H]1[C@@H]1O[C@@H]12` (stereo partly shown) [Scopolamin-N-oxide hydrobromide], the ThS net change is on record as 345.
Regarding `Clc1ccc(C(Cn2ccnc2)OCc2csc3c(Cl)cccc23)c(Cl)c1` (stereo not shown) [Sertaconazole nitrate], the ThS net change is 344.
Regarding `CC(C)CC(N(C)C)C1(c2ccc(Cl)cc2)CCC1.Cl` (stereo not shown) [Sibutramine HCl], the ThS net change amounted to 347.

Staying with this assay, now noted: p-tau aggregation modulator screen of the compound library, ThS fluorescence net change.
In turn, `COc1ccccc1OCC(O)CN1CCN(CC(=O)Nc2c(C)cccc2C)CC1` (stereo not shown) [Ranolazine] gave a ThS net change of 414.
Same read-out and setting: then `C#CCN[C@@H]1CCc2ccccc21` [Rasagiline], with 447; and `CCN1CCC[C@H]1CNC(=O)c1c(OC)ccc(Br)c1OC.Cl` [Remoxipride Hydrochloride], with 460; and `CCOc1cc(CC(=O)N[C@@H](CC(C)C)c2ccccc2N2CCCCC2)ccc1C(=O)O` [Repaglinide], with 481.
On the same count and under the same terms, then `NC(=O)c1ncn([C@@H]2O[C@H](CO)[C@@H](O)[C@H]2O)n1` [Ribavirin], with 458; and `CCC(=O)[C@@]1(C)[C@H](C)C[C@H]2[C@@H]3CCC4=CC(=O)C=C[C@]4(C)[C@H]3[C@@H](O)C[C@@]21C` [Rimexolone], with 434; and `CC(C)c1nc(CN(C)C(=O)N[C@H](C(=O)N[C@@H](Cc2ccccc2)C[C@H](O)[C@H](Cc2ccccc2)NC(=O)OCc2cncs2)C(C)C)cs1` [Ritonavir], with 538.
For `Cn1c([N+](=O)[O-])cnc1COC(N)=O` [Ronidazole], the ThS net change is reported as 445.
For the molecule `CN(CCOc1ccc(CC2SC(=O)NC2=O)cc1)c1ccccn1.Cl` (stereo not shown) [Rosiglitazone Hydrochloride], the ThS net change came out at 476.
Take `CN1CCN(c2c(F)cc3c(=O)c(C(=O)O)cn4c3c2SCC4)CC1` [Rufloxacin]: the ThS net change was 476.
Turning to `CC(C)(C)NC(=O)[C@@H]1C[C@@H]2CCCC[C@@H]2CN1C[C@@H](O)[C@H](Cc1ccccc1)NC(=O)[C@H](CC(N)=O)NC(=O)c1ccc2ccccc2n1` [Saquinavir mesylate], the ThS net change is given as 568.
Consider `O=C1NCCN1CCN1CCC(c2cn(-c3ccc(F)cc3)c3ccc(Cl)cc23)CC1` [Sertindole], for which the ThS net change is recorded as 434.
For `CN[C@H]1CC[C@@H](c2ccc(Cl)c(Cl)c2)c2ccccc21` [Sertraline], the ThS net change worked out at 428.
Molecule `CCCc1nn(C)c2c(=O)[nH]c(-c3cc(S(=O)(=O)N4CCN(C)CC4)ccc3OCC)nc12` [Sildenafil] returned a ThS net change of 461.
As to `C[C@H](Cc1cc2c(c(C(N)=O)c1)N(CCCO)CC2)NCCOc1ccccc1OCC(F)(F)F` [Silodosin], the ThS net change stood at 478.
As for `CCC(C)(C)C(=O)O[C@H]1C[C@@H](C)C=C2C=C[C@H](C)[C@H](CC[C@@H]3C[C@@H](O)CC(=O)O3)[C@H]21` [Simvastatin], the ThS net change was determined as 458.
Take `CC(=O)N[C@@H](CC(=O)N[C@@H](CCC(=O)O)C(=O)O)C(=O)O` [Spaglumic acid]: the ThS net change turned out to be 425.
The same measure, in the same setting: the value for `Cc1cn([C@H]2C=C[C@@H](CO)O2)c(=O)[nH]c1=O` [Stavudine] was 428.
